Test results: patent US6455528B1, “Piperazine compounds and medicinal use thereof” (Mitsubishi Pharma Corporation, priority 1997, dated 2002)
Counter-ions that a name gives are not always drawn.

melting point [°C] | Structure (SMILES)
119 to 120 | CCOc1cc(OCC)nc(N2CCN(Cc3ccc(CNC(C)=O)cc3)CC2)n1 [Example 108, N-(4-((4-(4,6-Diethoxypyrimidin-2-yl)piperazin-1-yl)methyl)phenylmethyl)acetamide]
109 to 111 | CC(=O)NC(C)c1ccc(CN2CCN(c3cccc(F)n3)CC2)cc1 (centres unmarked) [Example 102, N-(1-(4-((4-(6-Fluoropyridin-2-yl)piperazin-1-yl)methyl)phenyl)ethyl)acetamide]
124 to 126 | CC(=O)NC1(c2ccc(CN3CCN(c4ccc(F)cc4)CC3)cc2)CC1 [Example 65, N-(1-(4-((4-(4-Fluorophenyl)piperazin-1-yl)methyl)phenyl)cyclopropyl)acetamide]
108 to 109 | O=CNCc1ccc(CN2CCN(c3ccccc3)CC2)cc1 [Example 3, N-(4-((4-Phenylpiperazin-1-yl)methyl)phenylmethyl)formamide]
156 to 157 | CC(=O)NC(C)(C)c1ccc(C(C)N2CCN(c3ccc(F)cc3)CC2)cc1 (centres unmarked) [Example 60, N-(1-(4-(1-(4-(4-Fluorophenyl)piperazin-1-yl)ethyl)phenyl)-1-methylethyl)acetamide]
110 to 111 | CC(=O)NC(C)(C)c1ccc(CN2CCN(c3ccccc3)CC2)cc1 [Example 50, N-(1-Methyl-1-(4-((4-phenylpiperazin-1-yl)methyl)phenyl)ethyl)acetamide]
94.5 to 96 | CC(=O)NCc1ccc(CN2CCN(c3ccc(F)cc3[N+](=O)[O-])CC2)cc1 [Example 37, N-(4-((4-(4-Fluoro-2-nitrophenyl)-piperazin-1-yl)methyl)phenylmethyl)acetamide]
148 to 149.5 | CC(=O)NCc1ccc(CN2CCN(c3ccc(F)cc3NC(C)=O)CC2)cc1 [Example 39, N-(4-((4-(2-Acetylamino-4-fluorophenyl)piperazin-1-yl)methyl)phenylmethyl)acetamide]
80 to 81 | CC(=O)NCc1ccc(CN2CCN(c3cccc(C)c3)CC2)cc1 [Example 9, N-(4-((4-(3-Methylphenyl)piperazin-1-yl)methyl)phenylmethyl)acetamide]
115 to 117 | CC(=O)NCc1ccc(CN2CCN(c3ccc(F)cc3C)CC2)cc1 (as salt: hydrochloride)
137 to 138 | COc1ccc(N2CCN(Cc3ccc(CNC(C)=O)cc3)CC2)cc1 [Example 13, N-(4-((4-(4-Methoxyphenyl)piperazin-1-yl)methyl)phenylmethyl)acetamide]
136 to 137 | CC(=O)NC(C)c1ccc(CN2CCN(c3nccs3)CC2)cc1 (centres unmarked) [Example 101, N-(1-(4-((4-(Thiazol-2-yl)piperazin-1-yl)methyl)phenyl)ethyl)acetamide]
124 to 125 | CC(=O)NC1(c2ccc(C(C)N3CCN(c4ncccn4)CC3)cc2)CC1 (centres unmarked) [Example 70, N-(1-(4-(1-(4-(Pyrimidin-2-yl)piperazin-1-yl)ethyl)phenyl)cyclopropyl)acetamide]
160 to 163 | CC(=O)NCc1ccc(CN2CCN(c3ncc(Br)s3)CC2)cc1 [Example 111, N-(4-((4-(5-Bromothiazol-2-yl)piperazin-1-yl)methyl)phenylmethyl)acetamide]
152 to 155 | CC(=O)NCc1ccc(CN2CCN(c3nccc(N(C)C)n3)CC2)cc1 [Example 99, N-(4-((4-(4-(N,N-Dimethylamino)pyrimidin-2-yl)piperazin-1-yl)methyl)phenylmethyl)acetamide]
140 to 141 | CCC(=O)NCc1ccc(CN2CCN(c3ccccc3)CC2)cc1 [Example 4, N-(4-((4-Phenylpiperazin-1-yl)methyl)phenylmethyl)propionamide]
155 to 156 | CC(=O)NCc1ccc(CN2CCN(c3ccc(Cl)cn3)CC2)cc1 [Example 86, N-(4-((4-(5-Chloropyridin-2-yl)piperazin-1-yl)methyl)phenylmethyl)acetamide]
